Reference: the NIST ThermoML archive (doi:10.1021/je060271a)

Details: 303.16 K, Liquid, Vibrating tube method

CCCC(=O)OCC(COC(=O)CCC)(COC(=O)CCC)COC(=O)CCC [pentaerythritol tetrabutyrate]
Details	mass density [kg/m3]
28457 kPa	1059.5
28504 kPa	1059.6
28542 kPa	1059.7
28589 kPa	1059.8
28636 kPa	1059.7
28675 kPa	1059.8
28723 kPa	1059.9
28762 kPa	1059.7
28808 kPa	1059.8
28856 kPa	1059.8
28896 kPa	1060
28944 kPa	1059.8
28991 kPa	1060
29031 kPa	1060
29080 kPa	1060
29121 kPa	1060
29170 kPa	1060.1
29212 kPa	1060
29261 kPa	1060.1
29301 kPa	1060
29349 kPa	1060
29397 kPa	1060.1
29435 kPa	1060
29481 kPa	1060.1
29515 kPa	1060.2
29583 kPa	1060.3
29644 kPa	1060.2
29675 kPa	1060.3
29772 kPa	1060.4
29848 kPa	1060.4
29885 kPa	1060.5
29968 kPa	1060.4
30045 kPa	1060.6
30080 kPa	1060.5
30163 kPa	1060.5
30239 kPa	1060.6
30274 kPa	1060.8
30309 kPa	1060.5
30339 kPa	1060.8
30375 kPa	1060.8
30405 kPa	1060.6
30441 kPa	1060.8
30478 kPa	1060.7
30509 kPa	1060.8
30539 kPa	1060.8
30576 kPa	1060.9
30606 kPa	1060.9
30642 kPa	1060.7
30679 kPa	1060.9
30710 kPa	1060.8
30746 kPa	1060.9
30777 kPa	1061.1
30814 kPa	1061
30850 kPa	1060.9
30882 kPa	1061
30919 kPa	1061
30951 kPa	1061
30989 kPa	1061.1
31020 kPa	1061
31057 kPa	1061.1
31094 kPa	1061.3
31126 kPa	1061.1
31164 kPa	1061.1
31196 kPa	1061.1
31233 kPa	1061.1
31271 kPa	1061.2
31303 kPa	1061.3
31342 kPa	1061.2
31375 kPa	1061.3
31414 kPa	1061.3
31446 kPa	1061.3
31485 kPa	1061.2
31517 kPa	1061.2
31555 kPa	1061.3
31595 kPa	1061.4
31627 kPa	1061.4
31667 kPa	1061.4
31700 kPa	1061.5
31738 kPa	1061.4
31778 kPa	1061.5
31811 kPa	1061.5
31851 kPa	1061.5
31883 kPa	1061.5
31922 kPa	1061.6
31960 kPa	1061.6
31999 kPa	1061.6
32038 kPa	1061.6
32076 kPa	1061.5
32115 kPa	1061.7
32148 kPa	1061.9
32187 kPa	1061.8
32227 kPa	1061.7
32266 kPa	1061.9
32299 kPa	1061.7
32339 kPa	1061.8
32380 kPa	1061.8
32419 kPa	1061.8
32452 kPa	1061.8
32491 kPa	1062
32532 kPa	1061.9
32572 kPa	1061.8
32612 kPa	1061.9
32652 kPa	1062
32693 kPa	1061.8
32727 kPa	1062
32768 kPa	1062
32809 kPa	1062.1
32850 kPa	1062
32891 kPa	1062.2
33091 kPa	1062.2
33133 kPa	1062.2
33168 kPa	1062.2
33210 kPa	1062.2
33253 kPa	1062.4
33296 kPa	1062.3
33340 kPa	1062.3
33377 kPa	1062.2
33421 kPa	1062.4
33456 kPa	1062.4
33499 kPa	1062.4
33542 kPa	1062.4
33586 kPa	1062.6
33622 kPa	1062.5
33666 kPa	1062.6
33710 kPa	1062.5
33753 kPa	1062.5
33797 kPa	1062.6
33834 kPa	1062.6
33881 kPa	1062.7
33925 kPa	1062.7
33963 kPa	1062.8
34008 kPa	1062.7
34052 kPa	1062.7
34098 kPa	1062.8
34136 kPa	1062.8
34182 kPa	1062.8
34228 kPa	1062.7
34275 kPa	1062.9
34322 kPa	1062.9
34370 kPa	1063
34411 kPa	1063.1
34462 kPa	1063
34514 kPa	1063.1
34558 kPa	1062.9
34613 kPa	1063
34844 kPa	1063.3
